Source: paper PMC10443802, “Targeting a xenobiotic transporter to ameliorate vincristine-induced sensory neuropathy” (JCI Insight, 2023)
“And” between values parts separate entries of the source, which are not always exact repeats. Identical values can stand only once. Values belong to the compound of their own block, whether it stands above or below them.

What was measured:
hOATP1B1 [1] = target: T1, hOATP1B1 (Homo sapiens, UniProt Q9Y6L6); assay: α-tocopherol uptake in HEK293 cells overexpressing hOATP1B1; type: in vitro ADME
T1 sequence (Q9Y6L6 1-691): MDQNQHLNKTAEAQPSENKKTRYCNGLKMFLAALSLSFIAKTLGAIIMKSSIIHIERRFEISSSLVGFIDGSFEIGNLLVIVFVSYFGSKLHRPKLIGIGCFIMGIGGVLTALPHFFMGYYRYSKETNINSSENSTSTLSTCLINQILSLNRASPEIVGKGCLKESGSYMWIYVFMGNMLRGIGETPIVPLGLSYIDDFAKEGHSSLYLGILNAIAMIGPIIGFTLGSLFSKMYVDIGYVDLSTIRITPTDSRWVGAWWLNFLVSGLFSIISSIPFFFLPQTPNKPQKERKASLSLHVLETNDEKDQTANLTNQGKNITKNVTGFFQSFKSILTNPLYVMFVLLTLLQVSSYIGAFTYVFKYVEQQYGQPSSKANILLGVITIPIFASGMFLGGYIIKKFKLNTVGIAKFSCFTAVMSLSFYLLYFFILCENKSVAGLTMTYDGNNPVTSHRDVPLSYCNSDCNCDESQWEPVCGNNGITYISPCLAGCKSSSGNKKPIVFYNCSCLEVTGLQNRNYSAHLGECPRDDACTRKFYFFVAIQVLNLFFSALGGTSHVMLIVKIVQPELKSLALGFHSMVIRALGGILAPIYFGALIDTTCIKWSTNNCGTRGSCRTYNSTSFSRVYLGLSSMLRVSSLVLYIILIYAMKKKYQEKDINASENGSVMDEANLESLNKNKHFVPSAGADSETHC

OATP1B2 [2] = assay: Untargeted metabolomics of plasma and DRG, WT vs OATP1B2-deficient mice; type: in vivo, mouse
Source text: (A) Schematic overview of the untargeted metabolomics screen to discover an endogenous biomarker of OATP1B2. […] Positive fold change indicates higher plasma concentration in OATP1B2^–/– mice (n = 6 per group). […] (C) Volcano plot of differentially endogenous metabolites in untreated whole DRG samples of WT mice or OATP1B2^–/– mice. Negative fold change indicates lower DRG levels in OATP1B2^–/– mice (n = 6 per group). (D) Plasma levels and DRG/plasma ratios of α-tocopherol in WT mice or OATP1B2^–/– mice in secondary validation studies. […] Data are normalized to baseline levels observed in WT mice (n = 3 per group).

hOATP1B3 [3] = target: T2, hOATP1B3 (Homo sapiens, UniProt Q9NPD5); assay: Inhibition of EβG uptake in HEK293 cells overexpressing hOATP1B3
T2 sequence (Q9NPD5 1-702): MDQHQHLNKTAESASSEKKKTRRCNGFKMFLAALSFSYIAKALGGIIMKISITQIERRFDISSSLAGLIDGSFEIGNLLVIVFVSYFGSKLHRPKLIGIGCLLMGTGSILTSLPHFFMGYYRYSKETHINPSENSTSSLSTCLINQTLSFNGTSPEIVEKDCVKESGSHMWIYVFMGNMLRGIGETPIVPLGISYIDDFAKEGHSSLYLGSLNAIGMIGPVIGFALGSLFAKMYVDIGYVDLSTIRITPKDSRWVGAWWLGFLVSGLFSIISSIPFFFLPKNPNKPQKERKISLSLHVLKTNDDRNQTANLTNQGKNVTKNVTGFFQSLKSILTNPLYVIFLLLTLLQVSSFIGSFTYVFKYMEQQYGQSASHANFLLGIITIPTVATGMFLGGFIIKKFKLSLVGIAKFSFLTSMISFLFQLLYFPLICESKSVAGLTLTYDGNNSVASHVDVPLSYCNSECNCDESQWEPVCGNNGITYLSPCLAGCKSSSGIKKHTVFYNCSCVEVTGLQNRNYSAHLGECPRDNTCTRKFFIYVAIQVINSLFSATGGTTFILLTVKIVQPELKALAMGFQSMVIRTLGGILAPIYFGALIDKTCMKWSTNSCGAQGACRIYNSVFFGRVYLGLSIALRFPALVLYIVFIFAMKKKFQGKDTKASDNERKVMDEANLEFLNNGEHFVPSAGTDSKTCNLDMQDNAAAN

OATP1B2 [4] = assay: Plasma level and DRG/plasma ratio of α-tocopherol in mice (biomarker of OATP1B2 function); type: in vivo, mouse
hOATP1B3 [5] = target: T2, hOATP1B3; assay: α-tocopherol uptake in HEK293 cells overexpressing hOATP1B3; type: in vitro ADME
[6] = cited from earlier work
hOATP1B1 [7] = target: T1, hOATP1B1; assay: EβG uptake in HEK293 cells overexpressing hOATP1B1; type: in vitro ADME
mOATP1B2 = target: T3, mOATP1B2 (Mus musculus, UniProt Q9JJL3); assay: EβG uptake in HEK293 cells overexpressing mOATP1B2; type: in vitro ADME
T3 sequence (Q9JJL3 1-689): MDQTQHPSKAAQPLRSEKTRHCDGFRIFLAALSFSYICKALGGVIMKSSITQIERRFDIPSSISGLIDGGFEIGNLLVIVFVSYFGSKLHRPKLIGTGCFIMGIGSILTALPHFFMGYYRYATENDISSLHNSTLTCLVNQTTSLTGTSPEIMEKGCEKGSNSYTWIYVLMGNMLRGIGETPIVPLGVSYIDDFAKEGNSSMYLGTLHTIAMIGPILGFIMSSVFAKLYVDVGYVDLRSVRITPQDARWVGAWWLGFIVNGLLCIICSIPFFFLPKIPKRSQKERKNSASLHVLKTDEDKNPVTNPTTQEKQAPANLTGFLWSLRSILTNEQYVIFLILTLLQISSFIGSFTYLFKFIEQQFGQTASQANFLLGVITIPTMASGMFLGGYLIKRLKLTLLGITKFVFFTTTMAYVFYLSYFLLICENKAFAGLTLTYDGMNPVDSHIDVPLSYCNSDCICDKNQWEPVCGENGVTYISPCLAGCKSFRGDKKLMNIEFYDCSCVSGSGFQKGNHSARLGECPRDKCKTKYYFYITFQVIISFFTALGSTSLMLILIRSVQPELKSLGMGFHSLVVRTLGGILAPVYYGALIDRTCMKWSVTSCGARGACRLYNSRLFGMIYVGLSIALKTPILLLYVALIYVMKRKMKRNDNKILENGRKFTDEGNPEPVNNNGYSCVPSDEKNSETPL
Protocol: DRG, sciatic and caudal nerves were prepared, stained with toluidine blue, and examined with a Zeiss Axioskop WideField Light Microscope, as described previously (10). Representative images were captured with a QIClick Digital CCD color camera. For DRG morphometrics, the somatic size was measured for each cell containing nucleolus, and at least 200 DRG neurons per animal were manually measured and analyzed with a computer-assisted image analyzer (ImageJ software, Bethesda, MD). For sciatic nerve, all myelinated fibers evaluable in the analyzed space were counted and the internal (axonal) and external (total) diameters of myelinated fibers were measured on at least 500 myelinated fibers/nerve. The histograms of g-ratio (axonal diameter/whole fiber diameter as a measure of myelination degree in each fiber) distribution were generated. An observer blinded to the group compositions performed all the morphometric determinations.
Cellular accumulation. Human embryonic kidney (HEK293) cells (ATCC) overexpressing OATP1B1, […]
After incubation, transport was halted by aspirating radiolabeled drug, and rinsing the cells three times with ice-cold 1X PBS. Total radioactivity originating from the substrates was measured by lysing the cells with 1N NaOH, neutralized with 2N HCL, and measuring total radioactivity by liquid scintillation counting using an LS 6500 Counter (Beckman). […]

hOATP1B3 [8] = target: T2, hOATP1B3; assay: EβG uptake in HEK293 cells overexpressing hOATP1B3; type: in vitro ADME

α-tocopherol uptake (% of vehicle) (hOATP1B1 [1]; VC cells, control for hOATP1B1): 88.8965% and 111.905% and 99.1984%
α-tocopherol uptake (% of vehicle) (hOATP1B1 [1]; cells overexpressing hOATP1B1): 109.574% and 76.2241% and 88.2425%
Fold of Change KO/WT (OATP1B2 [2]; DRG samples, untreated OATP1B2-deficient (KO) vs wild-type mice): 0.730
Fold of Change KO/WT (OATP1B2 [2]; untreated plasma, OATP1B2-deficient (KO) vs wild-type mice): 2.03
Level of α-tocopherol (% of wild-type baseline), DRG/Plasma Ratio (OATP1B2 [4]; KO mice): 39.9993% and 37.2252% and 46.6384%
Level of α-tocopherol (% of wild-type baseline), Plasma (OATP1B2 [4]; KO mice): 178.006% and 210.63% and 138.224%
Level of α-tocopherol (% of wild-type baseline), DRG/Plasma Ratio (OATP1B2 [4]; WT mice): 92.6568% and 110.888% and 96.4551%
Level of α-tocopherol (% of wild-type baseline), Plasma (OATP1B2 [4]; WT mice): 108.759% and 91.8035% and 99.4376%
Substrate status (hOATP1B3 [5]; OATP1B3): transported substrate of OATP1B3
Structure (SMILES): Cc1c(C)c2c(c(C)c1O)CC[C@@](C)(CCC[C@H](C)CCC[C@H](C)CCCC(C)C)O2 [α-tocopherol]
Inhibition of transporter-mediated uptake of EβG (hOATP1B3 [3]): can mediate inhibition of transporter-mediated uptake
Level of α-tocopherol (% of wild-type) (OATP1B2 [4]; DRG, OATP1B2(-/-) mice): 28.1345 % of wild-type and 39.8965 % of wild-type and 39.7351 % of wild-type and 42.7289 % of wild-type and 36.0477 % of wild-type and 32.6784 % of wild-type
Level of α-tocopherol (% of wild-type) (OATP1B2 [4]; DRG, Wild-type mice): 86.7441 % of wild-type and 109.645 % of wild-type and 120.39 % of wild-type and 114.671 % of wild-type and 77.0519 % of wild-type and 91.498 % of wild-type
Level of α-tocopherol (% of wild-type baseline), relative DRG/plasma ratio (OATP1B2 [4]; KO (OATP1B2-/-) mice): 39.9993 % of wild-type baseline and 37.2252 % of wild-type baseline and 46.6384 % of wild-type baseline
Level of α-tocopherol (% of wild-type) (OATP1B2 [4]; Plasma, OATP1B2(-/-) mice): 240.656 % of wild-type and 154.285 % of wild-type and 188.158 % of wild-type and 206.445 % of wild-type and 170.946 % of wild-type and 257.161 % of wild-type
Level of α-tocopherol (% of wild-type) (OATP1B2 [4]; Plasma, Wild-type mice): 128.573 % of wild-type and 75.6647 % of wild-type and 109.778 % of wild-type and 78.7903 % of wild-type and 110.315 % of wild-type and 96.8791 % of wild-type
Level of α-tocopherol (% of wild-type baseline), relative DRG/plasma ratio (OATP1B2 [4]; WT mice, baseline): 92.6568 % of wild-type baseline and 110.888 % of wild-type baseline and 96.4551 % of wild-type baseline
α-tocopherol uptake (% of vehicle) (hOATP1B3 [5]; VC cells, control for hOATP1B3): 86.9835% and 91.7117% and 121.305% and 85.9356% and 106.189% and 107.875%
α-tocopherol uptake (% of vehicle) (hOATP1B3 [5]; cells overexpressing hOATP1B3): 213.78% and 147.762% and 148.702% and 127.524% and 133.603% and 184.662%
Share recovered in the liver [6]: up to 90%

Structure (SMILES): C[C@]12CC[C@@H]3c4ccc(O)cc4CC[C@H]3[C@@H]1CC[C@@H]2O[C@@H]1O[C@H](C(=O)O)[C@@H](O)[C@H](O)[C@H]1O [EβG, estradiol-17β-ᴅ-glucuronide]
EβG uptake (% of vector) (hOATP1B1 [7]): 1260.82 % of vector and 1125.55 % of vector and 1194.22 % of vector
EβG uptake (% of vector) (mOATP1B2): 2727.12 % of vector and 2435.39 % of vector and 2079.28 % of vector
EβG uptake (% of vector) (hOATP1B3 [8]): 5469.07 % of vector and 5408.81 % of vector and 5929.51 % of vector
